# Measurements from US20220117938A1, “COMBINATON THERAPY WITH A DON PRODRUG AND AN IMMUNE CHECKPOINT INHIBITOR” (DRACEN PHARMACEUTICALS, INC., priority 2019, published 2022).
# Tested on: MC-38 tumors
# Experiment: Anti-tumor efficacy of Compound 1 with and without anti-PD-1 in the subcutaneous MC-38 model (Example 4)
# Assay type: in vivo, Mus musculus
# Details: for MST: endpoint tumor volume 2000 mm^3; for T/C / TGI: Day 12
# Protocol: Tumor sizes were measured three times a week in two dimensions using a caliper, and the volume expressed in mm^3 using the formula: V=0.5 a×b^2 where a and b are the long and short diameters of the tumor, respectively. The tumor sizes were then used for the calculations of both tumor growth inhibition (TGI) and T/C values.
# TGI is calculated for each group using the formula: […]
# TVTreatment_DayN is the average tumor volume of a treatment group on a given day, TVTreatment_Day0 is the average tumor volume of the treatment group on the first day of treatment, TVVehicle_DayN is the average tumor volume of the vehicle control group on a given day, and TVVehicle_Day0 is the average tumor volume of the vehicle group on the first day of treatment.
# The T/C value (in percent) is an indication of antitumor effectiveness, T/C (%)=RTVTreatment/RTVControl×100% (RTVTreatment: the mean RTV of the treatment group; RTVControl: the mean RTV of the vehicle treated group). RTV (relative tumor volume)=TVDayN/TVDay0. TVDayN and TVDay0 is the tumor volume on day N and Day 0 respectively. T/C (%)≤42% is considered as significant antitumor activity and <10% is considered as highly significant antitumor activity by the National Cancer Institute criteria.
# Animal survival curve: When an individual animal reached to the termination endpoint (TV>2000 mm^3), the mouse was euthanized. The time from treatment initiation to the termination was deemed as its survival time. Survival curve was plotted by Kaplan-Meier method. Median survival time (MST) was calculated for each group. Increase of life span (ILS) was calculated according to the following formula: […]
# ILS (%)>25% is considered as a biologically significant survival benefit.
# The tumor volume between different groups was analyzed by two-way repeated measures ANOVA. Dunnett post hoc test was used for the comparisons with vehicle group. All data analyzed using GraphPad Prism 6.0. P<0.05 is considered to be statistically significant.
# Female C57BL/6 mice were inoculated subcutaneously at right flank with MC-38 cells for tumor development. Six days after tumor inoculation, 64 mice with tumor size ranging from 50-100 mm^3 (average tumor size 71 mm^3) were selected and assigned into 8 groups using stratified randomization with 8 mice per group based upon their tumor volumes. The treatments were started from the day of randomization (defined as D0), Group 1 was treated with Vehicle (Tween 80:Ethanol:Saline—5:5:90 v/v/v), s.c., qd×14, Group 2 was treated with Anti-PD-1 10 mg/kg i.p. q4d×4, Group 3 was treated with Compound 1 3 mpk qd×5, sc followed by 1 mpk, qd×9, sc, Group 4 was treated with Compound 1 3 mpk qd×5, sc followed by 1 mpk, qd×9, sc+anti PD-1 q4d×4, ip, Group 5 was treated with Compound 1 1 mpk qd×5, sc followed by 0.3 mpk, qd×9, sc, Group 6 was treated with Compound 1 1 mpk qd×5, sc followed by 0.3 mpk, qd×9, sc+anti PD-1 q4d×4, ip, Group 7 was treated with Compound 1 0.3 mpk qd×5, sc followed by 0.1 mpk, qd×9, sc and Group 8 was treated with Compound 1 0.3 mpk qd×5, sc followed by 0.1 mpk, qd×9, sc+anti PD-1 q4d×4, ip. The tumor sizes were measured three times per week during the treatment. The entire study was terminated on D56 after start of the treatment. […]
# The MC-38 tumor cells were maintained in vitro as a monolayer culture in DMEM medium supplemented with 10% heat inactivated fetal bovine serum and 100 μg/mL penicillin streptomycin at 37° C. in an atmosphere of 5% CO2 in air. The tumor cells were routinely subcultured twice weekly by trypsin-EDTA treatment. The cells growing to a confluency around 70%-80% were harvested and counted for tumor inoculation. The cultured MC-38 were harvested, re-suspended in base medium at a density of 1×10^7 cells/mL with viability >90%. Each mouse was inoculated subcutaneously at the right flank with 1×10^6 cells in 0.1 ml base medium for tumor development. […]
compound,measurement,setting,value
"CC(=O)N[C@@H](Cc1c[nH]c2ccccc12)C(=O)N[C@@H](CCC(=O)C=[N+]=[N-])C(=O)OC(C)C [Compound 1, Isopropyl (S)-2-((S)-2-acetamido-3-(1H-indol-3-yl)propanamido)-6-diazo-5-oxohexanoate]",ILS,Cpd. 1 0.3 mpk/0.1 mpk,114.29%
same,RTV at day 12,Cpd. 1 0.3 mpk/0.1 mpk,1.67 ± 0.03
same,MST,Cpd. 1 0.3 mpk/0.1 mpk,30 days
same,ILS,Cpd. 1 1 mpk/0.3 mpk,135.71%
same,RTV at day 12,Cpd. 1 1 mpk/0.3 mpk,0.36 ± 0.09
same,MST,Cpd. 1 1 mpk/0.3 mpk,33 days
same,ILS,Cpd. 1 3 mpk/1 mpk,135.71%
same,RTV at day 12,Cpd. 1 3 mpk/1 mpk,0.11 ± 0.03
same,MST,Cpd. 1 3 mpk/1 mpk,33 days
same,T/C,Cpd. 1 0.3 mpk/0.1 mpk,7.02%
same,TGI,Cpd. 1 0.3 mpk/0.1 mpk,97.27%
same,T/C,Cpd. 1 1 mpk/0.3 mpk,1.51%
same,TGI,Cpd. 1 1 mpk/0.3 mpk,102.87%
same,T/C,Cpd. 1 3 mpk/1 mpk,0.46%
same,TGI,Cpd. 1 3 mpk/1 mpk,103.98%
